Data taken from US20260000676A1, “CHROMAN DERIVATIVES AS ESTROGEN RECEPTOR DEGRADERS” (THE REGENTS OF THE UNIVERSITY OF MICHIGAN, priority 2022, published 2026).
Counter-ions that a name gives are not always drawn.

What was measured:
ER [1] = target: T1, ER (Homo sapiens (Human), UniProt P03372); assay: In-cell western (ICW) ER degradation assay in T47D cells; format: cell-based; conditions: 16 hrs; for DC50: ER degradation; for Dmax / T47D Dmax %: maximal ER degradation
Experimental: ERa degradative activity of compounds can be assessed in MCF-7 and T47D Cells. MCF-7 and T47D cell are seeded and are subsequently treated with the compounds at certain concentrations (e.g., 0.02 to 300 nM). DMSO can be used as vehicle control. Cells are fixed and are blocked with Intercept (PBS) Blocking Buffer (e.g., Li-COR, Odyssey Blocking Buffer), and are stained with ER (e.g., 1:500, Cell signaling) primary antibody for overnight at cold room. Secondary Antibody (e.g., IRDye 800CW Goat anti-Rabbit IgG) and CellTag 700 Stain are added in Intercept (PBS) Blocking Buffer. Finally, cell plate is placed in incubator to dry. Image and signal are captured on Odyssey® DLx Imaging System.
Day 3: After 16 hrs of compounds treatment, cells were fixed by 4% PFA and permeabilized with elution buffer (0.1% Triton X-100 in 1% PBS Solution). Subsequently, cells were blocked with Intercept (PBS) Blocking Buffer (Li-COR, Odyssey Blocking Buffer), and were stained with ER (1:500, Cell signaling) primary antibody for overnight at cold room.
Day 4: Remove the buffer, add IRDye 800CW Goat anti-Rabbit IgG Secondary Antibody (1:2000) and CellTag 700 Stain (1:500) in Intercept (PBS) Blocking Buffer. Finally, cell plate is placed in incubator to dry. Image and signal were captured on Odyssey® DLx Imaging System.

ER [2] = target: T1, ER; assay: In-cell western (ICW) ER degradation assay in MCF-7 cells; format: cell-based; conditions: MCF7, 16 hrs; for DC50: ER degradation; for Dmax: MCF7, maximal ER degradation; for MCF7 Dmax %: maximal ER degradation
CRBN/DDB1 = CRBN/DDB1 (Homo sapiens (Human), UniProt Q96SW2); assay: HTRF binding assay to CRBN/DDB1; conditions: read-out: CRBN HTRF IC50
Experimental: The binding potency was determined using HTRF assay technology (Perkin Elmer). Compounds were serially diluted in DMSO and 0.2 μL volume was transferred to white 384-well plate.

Sequence of CRBN/DDB1 (Q96SW2 whole entry): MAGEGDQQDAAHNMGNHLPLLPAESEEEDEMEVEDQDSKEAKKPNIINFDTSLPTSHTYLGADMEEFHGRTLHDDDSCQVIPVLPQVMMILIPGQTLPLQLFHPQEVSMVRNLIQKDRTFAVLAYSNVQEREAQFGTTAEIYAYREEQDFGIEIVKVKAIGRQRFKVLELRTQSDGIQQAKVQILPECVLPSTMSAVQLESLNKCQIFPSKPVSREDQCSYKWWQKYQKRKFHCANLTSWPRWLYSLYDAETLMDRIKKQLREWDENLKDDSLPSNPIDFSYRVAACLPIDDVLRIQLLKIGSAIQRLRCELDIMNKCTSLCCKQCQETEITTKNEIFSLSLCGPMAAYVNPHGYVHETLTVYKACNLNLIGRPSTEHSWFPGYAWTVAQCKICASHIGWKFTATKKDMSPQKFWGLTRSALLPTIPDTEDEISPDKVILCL
Sequence of CRBN/DDB1 (Q16531 whole entry partner): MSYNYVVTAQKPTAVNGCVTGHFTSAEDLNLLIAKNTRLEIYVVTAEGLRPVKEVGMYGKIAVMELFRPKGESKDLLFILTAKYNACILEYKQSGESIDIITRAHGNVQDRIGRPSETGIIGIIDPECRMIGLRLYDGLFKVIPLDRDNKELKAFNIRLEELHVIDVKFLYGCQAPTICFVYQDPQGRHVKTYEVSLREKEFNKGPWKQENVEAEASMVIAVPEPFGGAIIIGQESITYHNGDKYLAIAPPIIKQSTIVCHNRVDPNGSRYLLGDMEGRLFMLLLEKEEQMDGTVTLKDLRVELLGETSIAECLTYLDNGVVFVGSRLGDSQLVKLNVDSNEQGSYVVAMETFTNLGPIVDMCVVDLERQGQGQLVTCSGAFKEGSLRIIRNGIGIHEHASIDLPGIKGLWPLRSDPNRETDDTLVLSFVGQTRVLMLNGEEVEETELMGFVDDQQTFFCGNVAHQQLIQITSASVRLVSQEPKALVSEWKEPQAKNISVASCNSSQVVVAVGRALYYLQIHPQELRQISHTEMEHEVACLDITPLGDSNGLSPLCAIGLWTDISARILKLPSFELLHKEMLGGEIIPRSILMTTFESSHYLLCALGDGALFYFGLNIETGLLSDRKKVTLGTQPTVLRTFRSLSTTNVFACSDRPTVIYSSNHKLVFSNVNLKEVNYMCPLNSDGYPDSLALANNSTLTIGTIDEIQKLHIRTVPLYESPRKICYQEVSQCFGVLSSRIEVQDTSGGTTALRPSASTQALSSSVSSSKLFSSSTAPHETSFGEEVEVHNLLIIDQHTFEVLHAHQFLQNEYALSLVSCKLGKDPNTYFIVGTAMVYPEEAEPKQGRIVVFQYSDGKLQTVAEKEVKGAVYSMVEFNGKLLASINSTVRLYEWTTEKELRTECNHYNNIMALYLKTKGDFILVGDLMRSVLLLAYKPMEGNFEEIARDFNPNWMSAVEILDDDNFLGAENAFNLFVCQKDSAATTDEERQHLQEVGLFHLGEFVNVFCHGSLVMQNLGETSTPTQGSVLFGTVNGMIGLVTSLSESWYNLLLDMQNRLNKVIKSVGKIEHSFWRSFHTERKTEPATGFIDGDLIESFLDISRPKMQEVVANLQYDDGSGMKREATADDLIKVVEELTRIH
T1 sequence (P03372 whole entry): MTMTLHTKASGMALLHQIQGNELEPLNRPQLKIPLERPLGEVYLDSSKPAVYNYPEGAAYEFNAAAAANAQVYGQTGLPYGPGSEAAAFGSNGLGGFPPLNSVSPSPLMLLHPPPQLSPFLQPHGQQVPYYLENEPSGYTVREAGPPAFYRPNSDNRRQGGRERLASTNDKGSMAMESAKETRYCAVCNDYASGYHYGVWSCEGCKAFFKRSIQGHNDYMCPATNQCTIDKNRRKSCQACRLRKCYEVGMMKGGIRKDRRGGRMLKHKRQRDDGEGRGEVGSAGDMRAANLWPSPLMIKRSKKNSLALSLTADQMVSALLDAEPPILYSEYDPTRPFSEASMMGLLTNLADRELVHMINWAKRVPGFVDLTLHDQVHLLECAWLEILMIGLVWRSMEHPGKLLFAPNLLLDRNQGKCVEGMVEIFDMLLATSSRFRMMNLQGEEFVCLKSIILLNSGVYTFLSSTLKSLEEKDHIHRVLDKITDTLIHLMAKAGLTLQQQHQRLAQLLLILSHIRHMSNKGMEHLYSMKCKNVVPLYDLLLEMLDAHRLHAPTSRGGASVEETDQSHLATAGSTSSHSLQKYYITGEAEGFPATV

Structure (SMILES)	DC50 (ER [1]) [nM]	Dmax (ER [1]) [%]	DC50 (ER [2]) [nM]	Dmax (ER [2]) [%]	IC50 (CRBN/DDB1) [nM]	T47D Dmax % (ER [1])	MCF7 Dmax % (ER [2])	DC50 (ER [2]; given as number) [nM]
COc1cc(N2CCC(CN3CCN4c5ccc6c(c5OC[C@H]4C3)CN(C3CCC(=O)NC3=O)C6=O)CC2)c(F)cc1[C@H]1c2ccc(O)cc2OC[C@H]1c1ccccc1 (stereo partly drawn) [Compound A105, (R)-3-((S)-7-((1-(2-fluoro-4-((3R,4R)-7-hydroxy-3-phenylchroman-4-yl)-5-methoxyphenyl)piperidin-4-yl)methyl)-1-oxo-1,3,5,5a,6,7,8,9-octahydro-2H-pyrazino[1′,2′:4,5][1,4]oxazino[2,3-e]isoindol-2-yl)piperidine-2,7-dione]	1 to 10	25 to 50	10 to 100	25 to 50	< 50			
O=C1CC[C@H](NC(=O)c2ccc3c(n2)OC[C@H]2CN(C[C@@H]4COC5(CCN(c6ccc([C@@H]7c8ccc(O)cc8OC[C@@H]7c7ccccc7)cc6)CC5)C4)CCN32)C(=O)N1 [Compound A148, (R)-N-((S)-2,6-dioxopiperidin-3-yl)-3-(((R)-8-(4-((3S,4R)-7-hydroxy-3-phenylchroman-4-yl)phenyl)-1-oxa-8-azaspiro[4.5]decan-3-yl)methyl)-1,2,3,4,4a,5-hexahydropyrazino[1,2-d]pyrido[2,3-b][1,4]oxazine-8-carboxamide]	< 1	50 to 75	< 1	50 to 75	500 to 5000			
COC[C@H](C(=O)N1Cc2cc3c(cc2C1)C(=O)N(C1CCC(=O)NC1=O)C3)N1CCC2(CCN(c3ccc([C@@H]4c5ccc(O)cc5OC[C@@H]4c4ccccc4)cc3)CC2)CC1 (single isomer, unassigned) [Compound A60]	1 to 10	< 25	< 1	25 to 50	50 to 500			
O=C1CCC(N2Cc3cc(N4CCN(CC5CC6(CCN(c7ccc([C@@H]8c9ccc(O)cc9OC[C@@H]8c8ccccc8)cn7)CC6)C5)CC4)ccc3C2=O)C(=O)N1 (single isomer, unassigned) [Compound A67]	10 to 100		> 100		50 to 500	D (“D”; <25%)	D (“D”; <25%)	
O=C1CC[C@@H](Nc2ccc(C3CCN(C[C@@H]4COC5(CCN(c6ccc([C@H]7c8ccc(O)cc8OC[C@H]7c7ccccc7)cc6)CC5)C4)CC3)c(F)c2)C(=O)N1 (mixture of isomers) [Compound A162, 3-((3-fluoro-4-(1-(((R)-8-(4-((3RS, 4SR)-7-hydroxy-3-phenylchroman-4-yl)phenyl)-1-oxa-8-azaspiro[4.5]decan-3-yl)methyl)piperidin-4-yl)phenyl)amino)piperidine-2,6-dione]	< 1	≥ 75	< 1	25 to 50	< 50			
O=C1CCN(c2ccc(N3CCC4(CC3)CC(CN3CCN(c5ccc([C@H]6c7ccc(O)cc7OC[C@H]6c6ccccc6)cc5)CC3)C4)cc2)C(=O)N1 (single isomer, unassigned) [Compound A107]	< 1	25 to 50	1 to 10	25 to 50	> 5000			
O=C1CCC(N2Cc3c(ccc4c3OC[C@H]3CN(CC5CC6(CCN(c7ccc([C@@H]8c9ccc(O)cc9OC[C@@H]8c8ccccc8)cn7)CC6)C5)CCN43)C2=O)C(=O)N1 (single isomer, unassigned) [Compound A65]	1 to 10		1 to 10		50 to 500	C (“C”: 25%-50%)	D (“D”; <25%)	
COc1cccc([C@H]2COc3cc(O)ccc3[C@H]2c2ccc(N3CCC(CN4CCN5c6ccc7c(c6OC[C@H]5C4)CN(C4CCC(=O)NC4=O)C7=O)CC3)cc2)c1 (single isomer, unassigned) [Compound A33]	1 to 10		1 to 10		< 50			
O=C1CCC(N2C(=O)c3cc4c(cc3C2=O)CN(C(=O)CN2CC3(CCN(c5ccc([C@H]6c7ccc(O)cc7OC[C@H]6c6ccccc6)cc5)CC3)C2)C4)C(=O)N1 (single isomer, unassigned) [Compound A55, formate]	> 100	< 25	> 100	< 25	500 to 5000			
O=C1CCN(c2ccc(N3CCC4(CC3)CC(CN3CCN(c5ccc([C@@H]6c7ccc(O)cc7OC[C@@H]6c6ccccc6)cc5)CC3)C4)cc2)C(=O)N1 [Compound A112, 1-(4-(2-((4-(4-((3S,4R)-7-hydroxy-3-phenylchroman-4-yl)phenyl)piperazin-1-yl)methyl)-7-azaspiro[3.5]nonan-7-yl)phenyl)dihydropyrimidine-2,4(1H,3H)-dione]	1 to 10	< 25	> 100	< 25	> 5000			
O=C1CCC(NC(=O)c2ccc(N3CCC(CN4CCN(c5ccc([C@H]6c7ccc(O)cc7OC[C@H]6c6ccccc6)cc5)CC4)CC3)cn2)C(=O)N1 (stereo partly drawn) [Compound A129, N-(2,6-dioxopiperidin-3-yl)-5-(4-((4-(4-((3R,4S)-7-hydroxy-3-phenylchroman-4-yl)phenyl)piperazin-1-yl)methyl)piperidin-1-yl)picolinamide]	10 to 100		10 to 100		> 5000	B (“B”: >50% and <75%)	C (“C”: 25%-50%)	
O=C1CCC(Nc2ccc(C34CCN(CC5COC6(CCN(c7ccc([C@@H]8c9ccc(O)cc9OC[C@@H]8c8ccccc8)cc7F)CC6)C5)CC3C4(F)F)cc2)C(=O)N1 (stereo partly drawn) [Compound A159, 3-((4-(7,7-difluoro-3-(((R)-8-(2-fluoro-4-((3S,4R)-7-hydroxy-3-phenylchroman-4-yl)phenyl)-1-oxa-8-azaspiro[4.5]decan-3-yl)methyl)-3-azabicyclo[4.1.0]heptan-6-yl)phenyl)amino)piperidine-2,6-dione]	1 to 10	50 to 75	1 to 10	25 to 50	500 to 5000			
O=C1CC[C@H](N2Cc3c(ccc4c3OC[C@H]3CN(C[C@@H]5COC6(CCN(c7ccc([C@@H]8c9ccc(O)cc9OC[C@@H]8c8ccccc8)cc7F)CC6)C5)CCN43)C2=O)C(=O)N1 (single isomer, unassigned) [Compound A157]	< 1	≥ 75	< 1	50 to 75	< 50			
COc1cc(N2CCC(CN3CCN(c4cnc(C(=O)NC5CCC(=O)NC5=O)cc4OC)CC3)CC2)ccc1[C@H]1c2ccc(O)cc2OC[C@H]1c1ccccc1 (single isomer, unassigned) [Compound A127]	< 1	25 to 50	< 1	50 to 75	> 5000			
COc1cc(N2CCC(CN3CCC4(CC3)COc3cc5c(cc34)CN(C3CCC(=O)NC3=O)C5=O)CC2)ccc1[C@H]1c2ccc(O)cc2OC[C@H]1c1ccccc1 (stereo partly drawn) [Compound A136, 3-(1′-((1-(4-((3R,4S)-7-hydroxy-3-phenylchroman-4-yl)-3-methoxyphenyl)piperidin-4-yl)methyl)-7-oxo-5,7-dihydro-2H,6H-spiro[furo[2,3-f]isoindole-3,4′-piperidin]-6-yl)piperidine-2,6-dione]	< 1	50 to 75	< 1	50 to 75	< 50			
O=C1CCC(Nc2ccc(N3CCN(CC4CC5(CCN(c6ccc([C@@H]7c8ccc(O)cc8OC[C@@H]7c7ccccc7)cc6)CC5)C4)CC3)c(F)c2)C(=O)N1 (stereo partly drawn) [Compound A52, 3-((3-fluoro-4-(4-((7-(4-((3S,4R)-7-hydroxy-3-phenylchroman-4-yl)phenyl)-7-azaspiro[3.5]nonan-2-yl)methyl)piperazin-1-yl)phenyl)amino)piperidine-2,6-dione]	< 1	25 to 50	> 100	< 25	50 to 500			
O=C1CCC(Nc2ccc(C34CCN(CC5COC6(CCN(c7ccc([C@H]8c9ccc(O)cc9OC[C@H]8c8ccccc8)cc7F)CC6)C5)CC3C4(F)F)cc2)C(=O)N1 (stereo partly drawn) [Compound A156, 3-((4-(7,7-difluoro-3-(((R)-8-(2-fluoro-4-((3R,4S)-7-hydroxy-3-phenylchroman-4-yl)phenyl)-1-oxa-8-azaspiro[4.5]decan-3-yl)methyl)-3-azabicyclo[4.1.0]heptan-6-yl)phenyl)amino)piperidine-2,6-dione]	< 1	25 to 50	> 100	< 25	500 to 5000			
O=C1CC[C@@H](Nc2ccc(C3CCN(C[C@@H]4COC5(CCN(c6ccc([C@@H]7c8ccc(O)cc8OC[C@@H]7c7ccccc7)cc6)CC5)C4)CC3)c(F)c2)C(=O)N1 (single isomer, unassigned) [Compound A165]	< 1	50 to 75		25 to 50	50 to 500			0.31
O=C1CC[C@@H](Nc2ccc(C3CCN(C[C@H]4COC5(CCN(c6ccc([C@@H]7c8ccc(O)cc8OC[C@@H]7c7ccccc7)cc6)CC5)C4)CC3)c(F)c2)C(=O)N1 (single isomer, unassigned) [Compound A163]	< 1	50 to 75	< 1	25 to 50	50 to 500			
